Consider 2 compounds from patent US20090253718A1, “Pharmaceutical Compounds” (Astex Therapeutics Limited, priority 2006, published 2009).

Some results are limits rather than exact numbers.

One assay has as its target ROCK-II (h) (Homo sapiens, UniProt O75116). Nature of the assay: ROCK-II (h) radiometric kinase assay. The class given is biochemical. Particulars: read-out: IC50 anti-ROCK-II activity. Here is the method:
In a final reaction volume of 25 μl, ROCK-II (h) (5-10 mU) is incubated with 50 mM Tris pH 7.5, 0.1 mM EGTA, 30 μM […], 10 mM MgAcetate and [γ-^33P-ATP] (specific activity approx. 500 cpm/pmol, concentration as required). The reaction is initiated by the addition of the MgATP mix. After incubation for 40 minutes at room temperature, the reaction is stopped by the addition of 5 μl of a 3% phosphoric acid solution. 10 μl of the reaction is then spotted onto a P30 filtermat and washed three times for 5 minutes in 75 mM phosphoric acid and once in methanol prior to drying and scintillation counting.
The compound of example 29 was tested for anti-ROCK-II activity (assay as described above): […]

A further assay concerns MM1 cells. The conditions noted are these: continuous delivery using osmotic pumps, syngeneic rats; cited from earlier work.
The test system of a further assay is rat MM1 hepatoma cells. The conditions noted are these: cited from earlier work.
Assay [1] deals with isolated rabbit urinary bladder smooth muscle. The conditions noted are these: cited from earlier work.

Chain of ROCK-II (h) (O75116 whole entry): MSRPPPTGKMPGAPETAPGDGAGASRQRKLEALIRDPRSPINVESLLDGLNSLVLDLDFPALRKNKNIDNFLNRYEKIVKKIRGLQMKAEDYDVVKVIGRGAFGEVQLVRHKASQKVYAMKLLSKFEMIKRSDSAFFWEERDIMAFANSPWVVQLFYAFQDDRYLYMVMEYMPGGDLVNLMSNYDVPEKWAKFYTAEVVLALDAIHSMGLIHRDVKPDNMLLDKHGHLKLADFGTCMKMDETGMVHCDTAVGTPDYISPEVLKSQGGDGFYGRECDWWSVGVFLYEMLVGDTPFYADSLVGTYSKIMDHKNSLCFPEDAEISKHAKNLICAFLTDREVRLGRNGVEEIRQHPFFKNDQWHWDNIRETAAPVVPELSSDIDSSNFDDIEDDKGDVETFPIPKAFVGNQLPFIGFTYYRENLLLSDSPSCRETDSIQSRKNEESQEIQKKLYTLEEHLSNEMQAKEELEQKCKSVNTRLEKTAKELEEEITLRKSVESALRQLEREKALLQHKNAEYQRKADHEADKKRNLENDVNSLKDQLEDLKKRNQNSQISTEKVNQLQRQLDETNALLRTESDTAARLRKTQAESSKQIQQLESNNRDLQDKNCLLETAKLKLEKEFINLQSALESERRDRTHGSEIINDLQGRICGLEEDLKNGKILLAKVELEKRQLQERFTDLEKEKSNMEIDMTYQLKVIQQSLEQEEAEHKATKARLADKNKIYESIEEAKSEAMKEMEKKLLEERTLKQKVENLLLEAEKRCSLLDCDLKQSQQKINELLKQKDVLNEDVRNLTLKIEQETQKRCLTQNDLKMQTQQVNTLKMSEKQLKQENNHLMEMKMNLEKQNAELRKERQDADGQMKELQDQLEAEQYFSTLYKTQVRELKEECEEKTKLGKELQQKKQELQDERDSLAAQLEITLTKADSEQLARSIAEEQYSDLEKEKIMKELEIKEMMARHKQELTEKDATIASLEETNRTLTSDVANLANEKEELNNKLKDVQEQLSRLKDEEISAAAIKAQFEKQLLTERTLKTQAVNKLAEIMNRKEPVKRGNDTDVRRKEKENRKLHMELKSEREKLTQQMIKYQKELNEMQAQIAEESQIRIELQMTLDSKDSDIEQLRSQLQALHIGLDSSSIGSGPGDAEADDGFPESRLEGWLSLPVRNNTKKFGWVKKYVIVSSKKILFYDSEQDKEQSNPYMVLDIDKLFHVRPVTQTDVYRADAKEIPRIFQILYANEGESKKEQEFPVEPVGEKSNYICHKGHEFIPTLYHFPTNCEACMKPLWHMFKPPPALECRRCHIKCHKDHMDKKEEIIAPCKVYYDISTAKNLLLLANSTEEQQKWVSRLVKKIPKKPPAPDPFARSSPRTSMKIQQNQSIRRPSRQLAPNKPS

As usually defined, the IC50 is the concentration at which inhibition is half-maximal. For the compound `NC(c1ccc(Cl)cc1)C1CCN(c2ccnc3[nH]ccc23)CC1` (centres unmarked) [Example 29, C-(4-Chlorophenyl)-C-[1-(1H-pyrrolo[2,3-b]pyridin-4-yl)piperidin-4-yl]methylamine], the IC50 on ROCK-II (h) was under 100 nM.
For `C[C@@H](N)[C@H]1CC[C@H](C(=O)Nc2ccncc2)CC1` [Example Y-27632], the “dissemination of MM1 cells” value with MM1 cells is “considerably reduced”. For the same compound, in the assay with rat MM1 hepatoma cells, the “Rho-mediated activation of actomyosin” value is given as “blocked” and the invasive activity entry is recorded as “blocked”. For the same compound, the bethanechol-evoked contractions entry in assay [1] was “attenuates”.
